Patent publication US20200038392A1, “TOPICAL COMPOSITIONS AND METHODS OF PREPARATION AND USE” (Aldeyra Therapeutics, Inc., priority 2018, published 2020)
Converted amounts (≈) assume the structure as drawn. Like-named read-outs stand apart in the source and are kept apart here.

Key:
[1] = assay type: physicochemical
Excerpt: It is important to note that the comparison formulation has a nominal ADX-102 concentration of 1.0% w/w, which was higher than that observed in the aqueous phase of the comparison formulation (0.31% w/w). […] However, it is possible that oil phase excipients may assist in solubilizing ADX-102, allowing it to partition between phases.

[2] = ADX-102 oxidation investigation: peroxide spiking (H2O2, NMP) and high temperature stress in PEG 400; assay type: physicochemical; conditions: both peroxide spiking experiments (H2O2 and NMP); t=48 h at 70° C.
Description: A preliminary study was performed in an attempt to degrade ADX-102 to a suitable level such that oxidation products observed during long-term stability could be detected. To this end, an ADX-102 in PEG 400 stock solution (0.1% w/w) was prepared and degraded with hydrogen peroxide (H2O2) and N-methylpyrrolidone (NMP) at 0.1 and 1.0% w/w concentrations, respectively. Additionally, the stocks were stressed at 40 and 70° C. to increase degradation. […] Sufficient degradation of ADX-102 was observed following spiking with […] H2O2 and storage at 70° C. for 48 h condition and was therefore considered suitable for use in antioxidant/stabilizer selection experiments described below.

[3] = Saturated solubility of ADX-102 in DoE solvent systems; assay type: physicochemical; conditions: solvent system SS26; range in brackets
Description: Following the visual assessment of placebo formulations, a DoE mixture design for ADX-102 aqueous phase solvent systems was prepared, as shown in Table 22. This was performed in order to assess the solubility of ADX-102 in solvent systems and to confirm that at least a 1.0% w/w and a 5% w/w concentration of ADX-102 in the aqueous phase of the formulation was obtainable. The following excipient levels were assessed during the solvent system DoE experiments: • Water: 0-50% • Transcutol® HP: 0-20% • SR PEG 400: 0-60% • Ethanol: 0-20% • Propylene glycol: 0-15%
SS19, along with SS20 (SS21 was not used due to the high levels of Transcutol® HP), were used as a base for further solvent system development. SS23-SS26 were prepared, broadly based on these systems, with varying levels of excipient and added antioxidant/stabilizer, and preservative. The compositions of these solvent systems are detailed in Table 25. Additionally, penetration enhancers were varied in the developed solvent system, with SS23 (based on SS19) including no Transcutol® and SS25 including diisopropyl adipate, and in the case of SS24, a humectant (glycerol). It should be noted that SS25 became turbid following the addition of diisopropyl adipate.
The solvent system SS26 was developed in order to manufacture a 5% w/w formulation. […]

[4] = Super-refined PEG 400 versus non-refined PEG 400: saturated solubility and chemical stability of ADX-102; assay type: physicochemical; conditions: in PEG 400 (non-super refined)
Description: The use and requirement of non-super refined PEG 400 as an excipient was investigated in view of to the higher cost of SR PEG 400. Saturated solubility and chemical stability of ADX-102 in PEG 400 (non-super refined) was performed as described above.

[5] = Solubility of ADX-102 in potential receiver fluid systems; assay type: physicochemical; conditions: aqueous with cosolvent or surfactant or cyclodextrin
Description: The solubility of the drug in a range of receiver fluid systems was determined to ensure that drug release was not limited by the solubility of ADX-102 in the receptor compartment of Franz cells. The receiver fluids selected for investigation were: ethanol and water (50:50 v/v), 2% Brij 98 in ethanol and water (50:50 v/v), 20% PEG in water, 20% PEG 400 in ethanol and water (50:50 v/v) and 2% Tween 80 in water. The findings are summarized below.

## CC(C)(O)c1nc2ccc(Cl)cc2cc1N [ADX-102, 2-[3-amino-6-chloro-quinolin-2-yl]-propan-2-ol]
[1]
  Saturated solubility: 0.31 % w/w
  solubility: 0.31%
[2]
  ADX-102 remaining after degradation: < 70%
[3]
  ADX-102 saturated solubility (% w/w): 6.85 (6.84-6.86) % w/w
[4]
  Saturated solubility: > 20.00 % w/w
[5]; receiver fluid 1: Ethanol and water (50:50 v/v)
  solubility: 23.5 mg/mL (≈ 99.5 mM)
[5]; receiver fluid 1: ethanol and water (50:50 v/v)
  solubility: 23.6 mg/mL (≈ 99.5 mM)
[5]; receiver fluid 2: 2% Brij 98 in ethanol and water (50:50 v/v)
  solubility: 28.3 mg/mL (≈ 120 mM)
[5]; receiver fluid 3: 20% PEG 400 in water
  solubility: 1.31 mg/mL (≈ 5.53 mM)
[5]; receiver fluid 4: 20% PEG 400 in ethanol and water (50:50 v/v)
  solubility: 20.5 mg/mL (≈ 86.4 mM)
[5]; receiver fluid 5: 2% Tween 80 in water
  solubility: 26.3 mg/mL (≈ 111 mM)
[5]; receiver fluid systems for Franz cells, range over the investigated receiver fluid systems
  solubility: 1.31 to 28.4 mg/mL (≈ 5.53 to 120 mM)
